Results: patent publication US4710571A, “1H-imidazol-1-ethanol esters” (Gist-Brocades N.V., priority 1983, dated 1987)
Counter-ions that a name gives are not always drawn.

Columns and labels:
ear sebaceous glands = test: lipid (sebum) synthesis in ear sebaceous glands of androgen-stimulated female hamsters, ear biopsies incubated with radioactive acetate; assay type: in vivo, hamster; details: for lipid synthesis inhibition / inhibition in vivo at 100 µg/day: dose 100 μg per day; for lipid synthesis inhibition / inhibition in vivo at 100 µg/day / inhibition in vivo at 500 µg/day: androgen-stimulated female hamsters, percentages may rise over 100%; for inhibition in vivo at 500 µg/day: dose 500 μg per day
Method: The sebum synthesis inhibiting activities of 1H-imidazole-1-ethanol and the esters of formula I were established in a number of animal species and particularly in the hamster much research has been carried out. Androgens administered to female hamsters stimulate the sebum synthesis in ear sebaceous glands and the extent of sebum synthesis is determined by incubating ear biopsies with radioactive acetate (Hall D. W. R. et al, Hormonal Control of Hamster Ear Sebaceous Gland Lipogenesis, Arch. Dermatol Res., 275, 1 (1983)). The test was based on the conversion of the added radioactive acetate into lipids which after extraction with hexane can be determined in a scintillation counter. In the following Table, the inhibition percentages of a number of substances are shown and the percentages may rise over 100%. A very strong activity of a compound will inhibit both the activity stimulated by androgen and the basal sebum synthesis activity of the sebaceous gland.

hormonal activity = hormonal activity in animal tests; assay type: in vivo
sebum secretion = test: inhibition of sebum secretion in humans; assay type: in vivo, human
skin irritation = assay type: in vivo, human; details: in humans
[1] = system: lipid synthesis in other organs; test: lipid synthesis inhibition in organs other than the sebaceous glands; assay type: in vivo; details: animal tests
penetration of the skin = assay type: in vivo, human; details: in humans

| SMILES | inhibition in vivo at 100 µg/day (ear sebaceous glands; Mesocricetus auratus) [%] | other results |
| --- | --- | --- |
| O=C(OCCn1ccnc1)c1ccc(Cl)cc1Cl [2,4-Cl2 C6 H3, base] |  | lipid synthesis inhibition (ear sebaceous glands): 60% |
| O=C(O)/C=C\C(=O)O.O=C(OCCn1ccnc1)c1ccc(Cl)cc1Cl [2,4-Cl2 C6 H3, maleate, 2-(1H-imidazol-1-yl)-ethyl 2,4-dichlorobenzoate (Z)-2-butenedioate(1:1)] |  | lipid synthesis inhibition (ear sebaceous glands): 37% |
| O=C(OCCn1ccnc1)c1cccs1 [2-thiophene, 2-(1H-imidazol-1-yl)-ethyl 2-thiophenecarboxylate] | 89 |  |
| O=C(OCCn1ccnc1)c1ccc(C(F)(F)F)cc1 [4-CF3 C6 H4] |  | inhibition in vivo at 500 µg/day (ear sebaceous glands; Mesocricetus auratus): 70% |
| Cc1ccc(C(=O)OCCn2ccnc2)cc1 [4-CH3 C6 H4, base] | 91 |  |
| Cc1ccc(C(=O)OCCn2ccnc2)cc1 [4-CH3 C6 H4, maleate] |  | inhibition in vivo at 500 µg/day (ear sebaceous glands; Mesocricetus auratus): 92% |
| COc1ccc(C(=O)OCCn2ccnc2)cc1 [4-CH3 OC6 H4] | 83 |  |
| O=C(OCCn1ccnc1)c1ccc(Cl)cc1 [4-ClC6 H4] |  | inhibition in vivo at 500 µg/day (ear sebaceous glands; Mesocricetus auratus): 49% |
| O=C(OCCn1ccnc1)c1ccncc1 [4-pyridyl] | 44 |  |
| CC(C)(C)c1ccc(C(=O)OCCn2ccnc2)cc1 [4-tBuC6 H4, HCl] |  | inhibition in vivo at 500 µg/day (ear sebaceous glands; Mesocricetus auratus): 81% |
| CC(C)(C)c1ccc(C(=O)OCCn2ccnc2)cc1 [4-tBuC6 H4, base] | 67 |  |
| CCCC(=O)OCCn1ccnc1 [(CH2)2 CH3] | 106 |  |
| CC(C)(C)C(=O)OCCn1ccnc1 [(CH3)3 --C--] | 72 |  |
| O=C(CCc1ccccc1)OCCn1ccnc1 [C6 H5 (CH2)2] | 76 |  |
| O=C(C=Cc1ccccc1)OCCn1ccnc1 [C6 H5 --CH=CH] | 59 |  |
| O=C(OCCn1ccnc1)c1ccccc1 [C6 H5, 2-(1H-imidazol-1-yl)-ethyl benzoate] | 82 | hormonal activity (hormonal activity): no lipid synthesis inhibition in other organs or hormonal activity were found; inhibition of the sebum secretion (sebum secretion): good inhibition of the sebum secretion; irritation (skin irritation): little irriation; lipid synthesis inhibition in other organs [1]: no lipid synthesis inhibition in other organs; penetration of the skin (penetration of the skin): good penetration of the skin |
| CCCCCCCCCCCCCCCC(=O)OCCn1ccnc1 [CH3 (CH2)14 --, 2-(1H-imidazol-1-yl)-ethyl hexadecanoate ethanedioate (1:1)] | 44 |  |
| CC(=O)OCCn1ccnc1 [CH3] | 82 |  |
| OCCn1ccnc1 [imidazolethanol, 1H-imidazole-1-ethanol] |  | inhibition in vivo at 1000 µg/day (ear sebaceous glands; Mesocricetus auratus, read-out: lipid synthesis inhibition): 37% |
| CC1=C(/C=C/C(C)=C/C=C/C(C)=C/C(=O)OCCn2ccnc2)C(C)(C)CCC1 [retinoic acid, 2-(1H-imidazol-1-yl)-ethyl retinoate ethanedioate (2:1)] | 39 |  |
